Test results from patent publication US20210395676A1, “CARRIER FOR CELL CULTURE COMPRISING MICROCAPSULES CONTAINING NATURAL OIL” (Korea Research Institute of Chemical Technology, priority 2018, published 2021).

Test system: artificial myocardial structure (cardiac organoid)
Assay: Contractile force-based cardiac toxicity assessment of drug-treated artificial myocardial structure
Assay type: cell-based
Conditions: FIG. 15
Excerpt: Furthermore, after additionally treating an artificial myocardial structure prepared by coculturing gelatin oil capsules and cardiomyocytes with various drugs, contractile forces of the drug-treated artificial myocardial structure were checked.

Compound | beat rates (125 nM) | beat rates (10 nM) | contractile forces (10 nM)
COc1ccc(CCN(C)CCCC(C#N)(c2ccc(OC)c(OC)c2)C(C)C)cc1OC (stereo not drawn) [verapamil] | slow down and become somewhat irregular | – | –
CC(C)NCC(O)c1ccc(O)c(O)c1 (stereo not drawn) [Isopreterenol] | – | accelerated | changed strongly
